The supplement of paper PMC13207355

Tests used:
Settings in all cases: exposure time: 72 h
[1] = system: E13 (patient-derived glioblastoma stem cells of classical subtype); experiment: surviving fraction (nuclei count normalised to DMSO); higher = more cells surviving (less toxic)
[2] = system: E21 (patient-derived glioblastoma stem cells of mesenchymal subtype); experiment: as above
[3] = system: E28 (patient-derived glioblastoma stem cells of classical subtype); experiment: as above
[4] = system: E34 (patient-derived glioblastoma stem cells of proneural subtype); experiment: as above
[5] = system: E57 (patient-derived glioblastoma stem cells of mesenchymal subtype); experiment: as above
[6] = system: FT3469 (normal neural stem cell line); experiment: as above
[7] = system: E13; experiment: phenotypic distance (Euclidean, principal components) from DMSO controls (arbitrary units); higher = stronger morphological change
[8] = system: E21; experiment: as above
[9] = system: E28; experiment: as above
[10] = system: E34; experiment: as above
[11] = system: E57; experiment: as above
[12] = system: FT3469; experiment: as above
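For phenotypic distance (Euclidean, principal components) from DMSO controls in this document: cell Painting imaging in 384-well plates, CellProfiler features reduced to at least 20 principal components, Euclidean distance versus same-plate DMSO vehicle wells (0.1% v/v), median over six images per well.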
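For surviving fraction (nuclei count normalised to DMSO) in this document: nuclei counted by high-content imaging of Hoechst-stained cells in laminin-coated 384-well plates, relative to 0.1% DMSO vehicle wells, with staurosporine as cell-death control.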

O=C(/C=C/c1cccnc1)NCCCCC1CCN(C(=O)c2ccccc2)CC1 [Daporinad]
Settings	phenotypic distance	surviving fraction
[1], 4.1 nM	–	0.897
[1], 12.3 nM	–	0.759
[1], 37 nM	–	0.712
[1], 111.1 nM	–	0.732
[1], 333.3 nM	–	0.779
[1], 1000 nM	–	0.738
[1], 3000 nM	–	0.728
[2], 4.1 nM	–	0.918
[2], 12.3 nM	–	0.977
[2], 37 nM	–	1.06
[2], 111.1 nM	–	0.924
[2], 333.3 nM	–	0.916
[2], 1000 nM	–	0.916
[2], 3000 nM	–	0.873
[3], 4.1 nM	–	0.436
[3], 12.3 nM	–	0.459
[3], 37 nM	–	0.4196
[3], 111.1 nM	–	0.415
[3], 333.3 nM	–	0.423
[3], 1000 nM	–	0.351
[3], 3000 nM	–	0.379
[4], 4.1 nM	–	1.02
[4], 12.3 nM	–	0.865
[4], 37 nM	–	0.916
[4], 111.1 nM	–	0.851
[4], 333.3 nM	–	0.922
[4], 1000 nM	–	0.8551
[4], 3000 nM	–	1.04
[5], 4.1 nM	–	0.731
[5], 12.3 nM	–	0.677
[5], 37 nM	–	0.693
[5], 111.1 nM	–	0.71
[5], 333.3 nM	–	0.668
[5], 1000 nM	–	0.562
[5], 3000 nM	–	0.621
[6], 4.1 nM	–	0.8405
[6], 12.3 nM	–	0.956
[6], 37 nM	–	0.831
[6], 111.1 nM	–	0.93
[6], 333.3 nM	–	0.899
[6], 1000 nM	–	0.892
[6], 3000 nM	–	0.975
[7], 4.1 nM	1.28	–
[7], 12.3 nM	2.03	–
[7], 37 nM	2.19	–
[7], 111.1 nM	2.19	–
[7], 333.3 nM	2.17	–
[7], 1000 nM	2.27	–
[7], 3000 nM	2.04	–
[8], 4.1 nM	0.674	–
[8], 12.3 nM	0.879	–
[8], 37 nM	1.12	–
[8], 111.1 nM	1.73	–
[8], 333.3 nM	2.59	–
[8], 1000 nM	2.69	–
[8], 3000 nM	2.46	–
[9], 4.1 nM	3.04	–
[9], 12.3 nM	3.29	–
[9], 37 nM	3.514	–
[9], 111.1 nM	3.26	–
[9], 333.3 nM	3.25	–
[9], 1000 nM	3.51	–
[9], 3000 nM	3.47	–
[10], 4.1 nM	1.25	–
[10], 12.3 nM	1.37	–
[10], 37 nM	1.45	–
[10], 111.1 nM	1.6	–
[10], 333.3 nM	1.35	–
[10], 1000 nM	2.32	–
[10], 3000 nM	1.37	–
[11], 4.1 nM	2.92	–
[11], 12.3 nM	3.204	–
[11], 37 nM	3.213	–
[11], 111.1 nM	3.31	–
[11], 333.3 nM	3.19	–
[11], 1000 nM	3.44	–
[11], 3000 nM	3.491	–
[12], 4.1 nM	2.48	–
[12], 12.3 nM	2	–
[12], 37 nM	2.62	–
[12], 111.1 nM	2.52	–
[12], 333.3 nM	2.17	–
[12], 1000 nM	2.56	–
[12], 3000 nM	2.25	–

CN[C@@H](C)C(=O)N[C@H](C(=O)N1CCC[C@H]1C(=O)N[C@H]1c2ccccc2C[C@H]1OCC#CC#CCO[C@@H]1Cc2ccccc2[C@@H]1NC(=O)[C@@H]1CCCN1C(=O)[C@@H](NC(=O)[C@H](C)NC)C1CCCCC1)C1CCCCC1 [AZD5582]
Settings	phenotypic distance	surviving fraction
[1], 4.1 nM	–	0.897
[1], 12.3 nM	–	0.9073
[1], 37 nM	–	0.764
[1], 111.1 nM	–	0.8218
[1], 333.3 nM	–	0.814
[1], 1000 nM	–	0.789
[1], 3000 nM	–	0.755
[2], 4.1 nM	–	0.73
[2], 12.3 nM	–	0.739
[2], 37 nM	–	0.742
[2], 111.1 nM	–	0.721
[2], 333.3 nM	–	0.628
[2], 1000 nM	–	0.633
[2], 3000 nM	–	0.5049
[3], 4.1 nM	–	0.975
[3], 12.3 nM	–	1
[3], 37 nM	–	0.978
[3], 111.1 nM	–	1.01
[3], 333.3 nM	–	1.021
[3], 1000 nM	–	0.944
[3], 3000 nM	–	0.802
[4], 4.1 nM	–	0.925
[4], 12.3 nM	–	0.838
[4], 37 nM	–	0.855
[4], 111.1 nM	–	0.911
[4], 333.3 nM	–	0.9
[4], 1000 nM	–	0.847
[4], 3000 nM	–	0.764
[5], 4.1 nM	–	0.95
[5], 12.3 nM	–	0.901
[5], 37 nM	–	0.824
[5], 111.1 nM	–	0.756
[5], 333.3 nM	–	0.756
[5], 1000 nM	–	0.719
[5], 3000 nM	–	0.771
[6], 4.1 nM	–	1.01
[6], 12.3 nM	–	0.996
[6], 37 nM	–	1.07
[6], 111.1 nM	–	1.03
[6], 333.3 nM	–	1.09
[6], 1000 nM	–	0.918
[6], 3000 nM	–	0.951
[7], 4.1 nM	1.42	–
[7], 12.3 nM	1.1	–
[7], 37 nM	1.5	–
[7], 111.1 nM	1.31	–
[7], 333.3 nM	1.39	–
[7], 1000 nM	1.63	–
[7], 3000 nM	1.79	–
[8], 4.1 nM	1.08	–
[8], 12.3 nM	1.03	–
[8], 37 nM	1.42	–
[8], 111.1 nM	1.39	–
[8], 333.3 nM	1.47	–
[8], 1000 nM	1.24	–
[8], 3000 nM	1.92	–
[9], 4.1 nM	0.701	–
[9], 12.3 nM	0.512	–
[9], 37 nM	0.645	–
[9], 111.1 nM	0.558	–
[9], 333.3 nM	0.744	–
[9], 1000 nM	0.712	–
[9], 3000 nM	2.48	–
[10], 4.1 nM	0.7	–
[10], 12.3 nM	0.804	–
[10], 37 nM	0.881	–
[10], 111.1 nM	1.07	–
[10], 333.3 nM	0.735	–
[10], 1000 nM	0.779	–
[10], 3000 nM	1.26	–
[11], 4.1 nM	0.861	–
[11], 12.3 nM	1.22	–
[11], 37 nM	1.41	–
[11], 111.1 nM	2.04	–
[11], 333.3 nM	2.285	–
[11], 1000 nM	2.41	–
[11], 3000 nM	2.795	–
[12], 4.1 nM	0.951	–
[12], 12.3 nM	1.11	–
[12], 37 nM	1.34	–
[12], 111.1 nM	0.955	–
[12], 333.3 nM	0.844	–
[12], 1000 nM	1.57	–
[12], 3000 nM	1.61	–

Cc1cc(Nc2cc(CN3CCOCC3)c3nc(C)c(Cc4ccc(Cl)cc4F)n3n2)n[nH]1 [Gandotinib]
Settings	phenotypic distance	surviving fraction
[1], 4.1 nM	–	1.02
[1], 12.3 nM	–	0.923
[1], 37 nM	–	0.933
[1], 111.1 nM	–	0.946
[1], 333.3 nM	–	0.818
[1], 1000 nM	–	0.791
[1], 3000 nM	–	0.626
[2], 4.1 nM	–	1.07
[2], 12.3 nM	–	1.02
[2], 37 nM	–	1.03
[2], 111.1 nM	–	0.918
[2], 333.3 nM	–	0.724
[2], 1000 nM	–	0.505
[2], 3000 nM	–	0.164
[3], 4.1 nM	–	1.03
[3], 12.3 nM	–	0.979
[3], 37 nM	–	1.06
[3], 111.1 nM	–	1.02
[3], 333.3 nM	–	0.865
[3], 1000 nM	–	0.673
[3], 3000 nM	–	0.335
[4], 4.1 nM	–	0.94
[4], 12.3 nM	–	0.77
[4], 37 nM	–	0.6589
[4], 111.1 nM	–	0.511
[4], 333.3 nM	–	0.44
[4], 1000 nM	–	0.4
[4], 3000 nM	–	0.316
[5], 4.1 nM	–	1.061
[5], 12.3 nM	–	0.946
[5], 37 nM	–	0.903
[5], 111.1 nM	–	0.781
[5], 333.3 nM	–	0.534
[5], 1000 nM	–	0.42
[5], 3000 nM	–	0.193
[6], 4.1 nM	–	0.931
[6], 12.3 nM	–	0.889
[6], 37 nM	–	0.969
[6], 111.1 nM	–	0.97
[6], 333.3 nM	–	0.9328
[6], 1000 nM	–	0.806
[6], 3000 nM	–	0.584
[7], 4.1 nM	0.676	–
[7], 12.3 nM	0.87	–
[7], 37 nM	0.987	–
[7], 111.1 nM	1.47	–
[7], 333.3 nM	1.57	–
[7], 1000 nM	1.9	–
[7], 3000 nM	2.7	–
[8], 4.1 nM	1.3	–
[8], 12.3 nM	0.9953	–
[8], 37 nM	1.34	–
[8], 111.1 nM	1.92	–
[8], 333.3 nM	2.89	–
[8], 1000 nM	4.83	–
[8], 3000 nM	9.25	–
[9], 4.1 nM	0.402	–
[9], 12.3 nM	0.536	–
[9], 37 nM	0.979	–
[9], 111.1 nM	1.01	–
[9], 333.3 nM	1.15	–
[9], 1000 nM	1.63	–
[9], 3000 nM	3.72	–
[10], 4.1 nM	1.52	–
[10], 12.3 nM	2.31	–
[10], 37 nM	3.63	–
[10], 111.1 nM	5.44	–
[10], 333.3 nM	7.1	–
[10], 1000 nM	7.41	–
[10], 3000 nM	7.42	–
[11], 4.1 nM	0.653	–
[11], 12.3 nM	0.688	–
[11], 37 nM	1.33	–
[11], 111.1 nM	1.76	–
[11], 333.3 nM	2.18	–
[11], 1000 nM	2.93	–
[11], 3000 nM	5.26	–
[12], 4.1 nM	0.44	–
[12], 12.3 nM	0.627	–
[12], 37 nM	0.479	–
[12], 111.1 nM	1.67	–
[12], 333.3 nM	0.785	–
[12], 1000 nM	0.863	–
[12], 3000 nM	2.05	–
